Key:
TRPV1+ nociceptors [1] = conditions: mouse, in vivo
TRPV1+ nociceptors [2] = conditions: mouse, in vivo; remark: listed apart in the source
skin MCs = assay: In vivo two-photon microscopy of Pirt-GCaMP3 mice: degranulation of Av.SRho+ MCs; set-up: species or system mouse; conditions: for degranulation of Av.SRho+ MCs: mouse, in vivo
DRG neurons = type: cell-based, mouse

Compound | expression of the stress marker K-6 (TRPV1+ nociceptors [1]) | filaggrin organization (TRPV1+ nociceptors [1]) | skin lesions development and tested pathological features (TRPV1+ nociceptors [1]) | GCaMP3 fluorescence levels in skin neurons (TRPV1+ nociceptors [2]) | time by which increase in GCaMP3 fluorescence preceded degranulation of cognate Av.SRho+ MCs (skin MCs; i.d. 1 μM, video recorded for 60 minutes) [min] | degranulation of Av.SRho+ MCs (skin MCs) | intracellular calcium levels in DRG neurons (DRG neurons)
C=C(C)[C@]12C[C@@H](C)[C@@]34O[C@](Cc5ccccc5)(O[C@@H]1[C@@H]3C=C(COC(=O)Cc1ccc(O)c(OC)c1)C[C@]1(O)C(=O)C(C)=C[C@@H]41)O2 [RTX, resiniferatoxin] | decreased | restored | strong reduction | – | – | – | –
COc1cc(CNC(=O)CCCC/C=C/C(C)C)ccc1O [capsaicin] | – | – | – | strong increase | 10 to 15 | most of Av.SRho^+ MCs exhibited a degranulated phenotype | –
Staphylococcal enterotoxin B [SEB] | – | – | – | significant increase | – | presence of adjacent degranulated Av.SRho^+ MCs | weak

Source: patent US20220227859A1, “METHOD TO TREAT TYPE 2 INFLAMMATION OR MAST-CELL DEPENDENT DISEASE” (INSERM (INSTITUT NATIONAL DE LA SANTÉ ET DE LA RECHERCHE …, priority 2019, published 2022)
